Results on 29 molecules are retold here after patent US11034692B1 (Genentech, Inc., priority 2017, dated 2021).

This experiment deals with HPK1. Put plainly: HPK1 Lantha Binding Assay ("Lanth"). The following applies: Table B1-1, read-out: HPK1 Ki (μM) (Lanth). How it is done:
HPK1 Lantha Binding Assay (“Lanth”)
The compounds to be tested were diluted by preparing 12.5 uL/well of 5 mM compound (100×) in columns 2 and 13 and 10 ul/well of DMSO in columns 3-12, 14-23, and wells A1-H1 and I24-P24 of the compound plate using a Bravo liquid handling platform. For the reference compound, the top concentration was 1 mM. To the plate was added 10 ul 2 mM staurosporine in wells J1-P1 and A24-H24. A 11 point 5-fold compound serial dilution was performed using the Bravo liquid handling platform. From the plate were transferred 2.5 ul of the solutions from column 2 and column 13 to the 10 ul of DMSO in columns 3 and 14 & so on. The compound plate was centrifuged at 2500 rpm for 1 min. From the compound plate was transferred 80 nl of the compounds into an assay plate using the Echo liquid handler system. One compound plate makes two assay plates. Each assay plate is sealed and stored in an N2 cabinet.
The following assay concentrations and times were used: 2 nM HPK1, 2 nM Eu-Anti-GST Ab, and 15 nM Tracer222, with 60 min incubation time.
III. HPK Lantha Binding Assay:
For the binding assay, 4 ul 2×HPK1 and Eu-anti-GST antibody were added to each well of the assay plate using a Multidrop reagent dispenser. The solutions were incubated in a 23 C incubator for 1 h. To each well of the assay plate was added 4 ul 2× Tracer-222 using a Multidrop reagent dispenser. The solutions were again incubated in a 23 C incubator for 1 h. The results of the assay were read using an Envision plate reader with the following parameters: TR_FRET, 340ex/615 and 665em; 100 usec Delay; and 200 usec integration.
Compound Ki was analyzed using Morrison ki fit model in XL-fit • a. fit=(1−((((E+x)+(Ki*(1+(S/Kd))))−(((((E+x)+(Ki*(1+(S/Kd))))[…])−((4*E)*x))^0.5))/(2*E))) • res=(y-fit) • b. Parameters: • E=enzyme concentration • S=Tracer222 concentration, Kd=Tracer222 Kd • All measurements reported using the same units (uM)
Exemplary compounds of Formula I or Ia were tested in the binding assays. The Ki data in Table B1-1 are based on the “Lanth” assay.

SMILES strings stand for the structures.

The Ki is a dissociation constant, usually derived from enzyme kinetics or from competition with a known ligand.

For `CC(=O)N1CC(n2cc(Nc3cc4cc(-c5cnccc5C)nc(N)c4cn3)cn2)C1` [Compound 161, 1-[3-[4-[[8-amino-6-(4-methyl-3-pyridyl)-2,7-naphthyridin-3-yl]amino]pyrazol-1-yl]azetidin-1-yl]ethanone], the Ki was 0.02 nM.

Regarding `Cc1ccncc1-c1nc(N)c2cnc(NC(=O)Nc3cnn(C)c3)cc2c1F` [Compound 162, 1-[8-amino-5-fluoro-6-(4-methyl-3-pyridyl)-2,7-naphthyridin-3-yl]-3-(1-methylpyrazol-4-yl)urea], the Ki was 3.2 nM.

`Cc1ccncc1-c1nc(N)c2cnc(NC(=O)Nc3cnn(C)c3)cc2c1Cl` [Compound 163, 1-[8-amino-5-chloro-6-(4-methyl-3-pyridyl)-2,7-naphthyridin-3-yl]-3-(1-methylpyrazol-4-yl)urea]: the Ki worked out at 1.2 nM.

As for `CCc1ccncc1-c1cc2cc(Nc3cnn(CCO)c3)ncc2c(N)n1` [Compound 168, 2-[4-[[8-amino-6-(4-ethyl-3-pyridyl)-2,7-naphthyridin-3-yl]amino]pyrazol-1-yl]ethanol], the Ki worked out at 2 nM.

As for `Cc1ccncc1-c1cc2cc(Nc3cnn(CCO)c3)ncc2c(N)n1` [Compound 169, 2-[4-[[8-amino-6-(4-methyl-3-pyridyl)-2,7-naphthyridin-3-yl]amino]pyrazol-1-yl]ethanol], the Ki is 0.48 nM.

Take `Cc1ccncc1-c1cc2cc(Nc3ccn(C)c(=O)c3)ncc2c(N)n1` [Compound 170, 4-[[8-amino-6-(4-methyl-3-pyridyl)-2,7-naphthyridin-3-yl]amino]-1-methyl-pyridin-2-one]: the Ki is 3 nM.

With `Cc1ccncc1-c1cc2cc(NC(=O)Nc3ccccc3C#N)ncc2c(N)n1` [Compound 171, 1-[8-amino-6-(4-methyl-3-pyridyl)-2,7-naphthyridin-3-yl]-3-(2-cyanophenyl)urea], the Ki is 1500 nM.

Turning to `COCCN1CC(NC(=O)Nc2cc3cc(-c4cnccc4C)nc(N)c3cn2)C1` [Compound 174, 1-(8-amino-6-(4-methylpyridin-3-yl)-2,7-naphthyridin-3-yl)-3-(1-(2-methoxyethyl)azetidin-3-yl)urea], the Ki turned out to be 2.5 nM.

For `Cc1ccncc1-c1cc2cc(NC(=O)NC3CNC3)ncc2c(N)n1` [Compound 175, 1-(8-amino-6-(4-methylpyridin-3-yl)-2,7-naphthyridin-3-yl)-3-(azetidin-3-yl)urea], the inhibitory constant (Ki) turned out to be 3.4 nM.

On to `CCc1ccncc1-c1cc2cc(NC(=O)N[C@@H]3CCN(C)C3=O)ncc2c(N)n1` [Compound 176, (R)-1-(8-amino-6-(4-ethylpyridin-3-yl)-2,7-naphthyridin-3-yl)-3-(1-methyl-2-oxopyrrolidin-3-yl)urea], for which the inhibition constant (Ki) was found to be 5.5 nM.

Consider `CNC(=O)C(C)(C)n1cc(Nc2cc3cc(-c4cnccc4C)nc(N)c3cn2)cn1` [Compound 182, 2-[4-[[8-amino-6-(4-methyl-3-pyridyl)-2,7-naphthyridin-3-yl]amino]pyrazol-1-yl]-N,2-dimethyl-propanamide], for which the Ki is 1.2 nM.

As for `Cc1ccncc1-c1cc2cc(Nc3cnn(C(C)(C)C(=O)N(C)C)c3)ncc2c(N)n1` [Compound 183, 2-[4-[[8-amino-6-(4-methyl-3-pyridyl)-2,7-naphthyridin-3-yl]amino]pyrazol-1-yl]-N,N,2-trimethyl-propanamide], the Ki was determined as 0.98 nM.

As for `C[C@H]1COC(=O)N1c1cc2cc(NC(=O)[C@@H]3C[C@H]3C#N)ncc2c(N)n1` [Compound 186, trans-N-(8-amino-6-((S)-4-methyl-2-oxooxazolidin-3-yl)-2,7-naphthyridin-3-yl)-2-cyanocyclopropanecarboxamide], the inhibition constant Ki amounted to 4 nM.

`Cc1ccncc1-c1cc2cc(NC(=O)[C@H]3C[C@@H]3CC#N)ncc2c(N)n1` [Compound 193, (1S,2R)—N-(8-amino-6-(4-methylpyridin-3-yl)-2,7-naphthyridin-3-yl)-2-(cyanomethyl)cyclopropane-1-carboxamide]: the Ki came to 0.135 nM.

For `Cc1ccncc1-c1cc2cc(NC(=O)[C@@H]3C[C@H]3CC#N)ncc2c(N)n1` [Compound 194, (1R,2S)—N-(8-amino-6-(4-methylpyridin-3-yl)-2,7-naphthyridin-3-yl)-2-(cyanomethyl)cyclopropane-1-carboxamide], the inhibition constant (Ki) is 0.967 nM.

Take `Cc1ccncc1-c1nc(N)c2cnc(NC(=O)[C@H]3C[C@@H]3c3cn[nH]c3)cc2c1F` [Compound 195, (1S,2S)—N-(8-amino-5-fluoro-6-(4-methylpyridin-3-yl)-2,7-naphthyridin-3-yl)-2-(1H-pyrazol-4-yl)cyclopropane-1-carboxamide]: the Ki stood at 0.02 nM.

In the case of `Cc1ccncc1-c1nc(N)c2cnc(NC(=O)[C@@H]3C[C@H]3c3cn[nH]c3)cc2c1F` [Compound 196, (1R,2R)—N-(8-amino-5-fluoro-6-(4-methylpyridin-3-yl)-2,7-naphthyridin-3-yl)-2-(1H-pyrazol-4-yl)cyclopropane-1-carboxamide], the Ki is 6.01 nM.

For the molecule `Cc1ccncc1-c1cc2cc(NC(=O)[C@H]3C[C@@H]3c3cnn(C)c3)ncc2c(N)n1` [Compound 197, (1S,2S)—N-(8-amino-6-(4-methylpyridin-3-yl)-2,7-naphthyridin-3-yl)-2-(1-methyl-1H-pyrazol-4-yl)cyclopropane-1-carboxamide], the Ki came out at 0.027 nM.

With `Cc1ccncc1-c1cc2cc(NC(=O)[C@@H]3C[C@H]3c3cnn(C)c3)ncc2c(N)n1` [Compound 198, (1R,2R)—N-(8-amino-6-(4-methylpyridin-3-yl)-2,7-naphthyridin-3-yl)-2-(1-methyl-H-pyrazol-4-yl)cyclopropane-1-carboxamide], the Ki was 0.55 nM.

In the case of `Cc1c(N)cncc1-c1cc2cc(NC(=O)[C@@H]3C[C@H]3C#N)ncc2c(N)n1` [Compound 199, (1R,2R)—N-(8-amino-6-(5-amino-4-methylpyridin-3-yl)-2,7-naphthyridin-3-yl)-2-cyanocyclopropane-1-carboxamide], the Ki stood at 3.39 nM.

Regarding `Cc1c(N)cncc1-c1cc2cc(NC(=O)[C@H]3C[C@@H]3C#N)ncc2c(N)n1` [Compound 200, (1S,2S)—N-(8-amino-6-(5-amino-4-methylpyridin-3-yl)-2,7-naphthyridin-3-yl)-2-cyanocyclopropane-1-carboxamide], the inhibition constant Ki came out at 0.343 nM.

Take `Cc1ccncc1-c1cc2cc(NC(=O)[C@H]3C[C@@H]3C#N)ncc2c(N)n1` [Compound 202, (1S,2S)—N-(8-amino-6-(4-methylpyridin-3-yl)-2,7-naphthyridin-3-yl)-2-cyanocyclopropane-1-carboxamide]: the Ki was 0.4 nM.

For `Cc1ccncc1-c1cc2cc(NC(=O)[C@@H]3C[C@H]3C#N)ncc2c(N)n1` [Compound 203, (1R,2R)—N-(8-amino-6-(4-methylpyridin-3-yl)-2,7-naphthyridin-3-yl)-2-cyanocyclopropane-1-carboxamide], the Ki came to 0.4 nM.

Take `Cc1ccncc1-c1cc2cc(NC(=O)C3CC3(C)CO)ncc2c(N)n1` (centres unmarked) [Compound 209, N-(8-amino-6-(4-methylpyridin-3-yl)-2,7-naphthyridin-3-yl)-2-(hydroxymethyl)-2-methylcyclopropanecarboxamide]: the Ki is 30.7 nM.

Regarding `Cn1cc([C@@H]2C[C@H]2C(=O)Nc2cc3cc(-c4cnccc4CCO)nc(N)c3cn2)cn1` [Compound 214, (1R,2R)—N-(8-amino-6-(4-(2-hydroxyethyl)pyridin-3-yl)-2,7-naphthyridin-3-yl)-2-(1-methyl-1H-pyrazol-4-yl)cyclopropanecarboxamide], the Ki is 0.039 nM.

Turning to `Cn1cc([C@H]2C[C@@H]2C(=O)Nc2cc3cc(-c4cnccc4CCO)nc(N)c3cn2)cn1` [Compound 215, (1S,2S)—N-(8-amino-6-(4-(2-hydroxyethyl)pyridin-3-yl)-2,7-naphthyridin-3-yl)-2-(1-methyl-1H-pyrazol-4-yl)cyclopropanecarboxamide], the inhibition constant (Ki) worked out at 1.19 nM.

For `Cc1ccncc1-c1cc2cc(NC(=O)[C@H]3C[C@@H]3C3CNC(=O)O3)ncc2c(N)n1` (stereo partly drawn) [Compound 231, trans-N-(8-amino-6-(4-methylpyridin-3-yl)-2,7-naphthyridin-3-yl)-2-((S)-2-oxooxazolidin-5-yl)cyclopropanecarboxamide], the Ki is 0.173 nM.

For `Cc1ccncc1-c1nc(N)c2cnc(NC(=O)[C@H]3C[C@@H]3c3cnn(C)c3)cc2c1Cl` [Compound 233, (1S,2S)—N-(8-amino-5-chloro-6-(4-methylpyridin-3-yl)-2,7-naphthyridin-3-yl)-2-(1-methyl-1H-pyrazol-4-yl)cyclopropanecarboxamide], the Ki was 0.694 nM.

As to `Cc1ccncc1-c1nc(N)c2cnc(NC(=O)[C@@H]3C[C@H]3c3cnn(C)c3)cc2c1Cl` [Compound 234, (1R,2R)—N-(8-amino-5-chloro-6-(4-methylpyridin-3-yl)-2,7-naphthyridin-3-yl)-2-(1-methyl-1H-pyrazol-4-yl)cyclopropanecarboxamide], the Ki was found to be 0.078 nM.
